Measurements reported in patent US8440684B2, “Polycyclic pyrrolidine-2,5-dione derivatives as -formyl peptide receptor like-1 (FPRL-1) receptor modulators” (Allergan, Inc., priority 2011, dated 2013).

Molecular target: T1, FPRL1 (Homo sapiens, UniProt P25090)
T1 construct: expressed in transfected cells
T1 sequence (P25090 1-351): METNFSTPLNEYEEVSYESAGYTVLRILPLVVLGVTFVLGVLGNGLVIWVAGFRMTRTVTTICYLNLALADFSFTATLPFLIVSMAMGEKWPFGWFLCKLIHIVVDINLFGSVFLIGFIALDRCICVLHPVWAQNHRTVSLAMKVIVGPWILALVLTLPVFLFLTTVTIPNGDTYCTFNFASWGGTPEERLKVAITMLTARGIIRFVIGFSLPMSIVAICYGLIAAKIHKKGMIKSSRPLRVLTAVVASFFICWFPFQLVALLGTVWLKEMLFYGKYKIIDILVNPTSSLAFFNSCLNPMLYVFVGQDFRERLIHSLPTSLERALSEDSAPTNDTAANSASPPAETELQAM
Assay: compound-induced calcium activity on FLIPR Tetra in CHO-Ga16 cells stably expressing FPRL1
Format: cell-based
Settings: for FPRL1 (rel. eff.): relative efficacy; for EC50: tested 0.61 to 10,000 nM
Method: CHO-Ga16 cells stably expressing FPRL1 were cultured in (F12, 10% FBS, 1% PSA, 400 μg/ml geneticin and 50 μg/ml hygromycin) and HEK-Gqi5 cells stable expressing FPR1 were cultured in (DMEM high glucose, 10% FBS, 1% PSA, 400 μg/ml geneticin and 50 μg/ml hygromycin). In general, the day before the experiment, 18,000 cells/well were plated in a 384-well clear bottom poly-d-lysine coated plate. The following day the screening compound-induced calcium activity was assayed on the FLIPR^Tetra. The drug plates were prepared in 384-well microplates using the EP3 and the MultiPROBE robotic liquid handling systems. Compounds were tested at concentrations ranging from 0.61 to 10,000 nM. Results are expressed as EC50 (nM) and efficacy values.

FPRL1 (rel. eff.)	EC50 [µM]	Compound
(0.9)	0.118	O=C(CN1C(=O)C2C(C1=O)C1CCC2C12CC2)Nc1ccc(Br)cc1 (stereo not shown) [Compound 1, N-(4-Bromophenyl)-2-(1,3-dioxooctahydro-2H-spiro[2-aza-4,7-methanoisoindole-8,1′-cyclopropan]-2-yl)acetamide]
(1.0)	0.336	CSc1ccc(NC(=O)CN2C(=O)C3C(C2=O)C2CCC3C23CC3)cc1 (stereo not shown) [Compound 2, 2-(1,3-dioxooctahydro-2H-spiro[2-aza-4,7-methanoisoindole-8,1′-cyclopropan]-2-yl)-N-[4-(methylthio)phenyl]acetamide]
(1.0)	2.05	O=C(CN1C(=O)C2C(C1=O)C1CCC2C12CC2)Nc1ccc(Cl)cc1 (stereo not shown) [Compound 3, N-(4-chlorophenyl)-2-(1,3-dioxooctahydro-2H-spiro[2-aza-4,7-methanoisoindole-8,1′-cyclopropan]-2-yl)acetamide]
(0.72)	3.46	CS(=O)(=O)c1ccc(NC(=O)CN2C(=O)C3C(C2=O)C2CCC3C23CC3)cc1 (stereo not shown) [Compound 4, 2-(1,3-dioxooctahydro-2H-spiro[2-aza-4,7-methanoisoindole-8,1′-cyclopropan]-2-yl)-N-[4-(methylsulfonyl)phenyl]acetamide]
(0.86)	2.65	O=C(CN1C(=O)C2C(C1=O)C1CCC2C12CC2)Nc1ccc(I)cc1 (stereo not shown) [Compound 5, 2-(1,3-dioxooctahydro-2H-spiro[2-aza-4,7-methanoisoindole-8,1′-cyclopropan]-2-yl)-N-(4-iodophenyl)acetamide]
(0.91)	1.15	CCc1ccc(NC(=O)CN2C(=O)C3C(C2=O)C2CCC3C23CC3)cc1 (stereo not shown) [Compound 6, 2-(1,3-dioxooctahydro-2H-spiro[2-aza-4,7-methanoisoindole-8,1′-cyclopropan]-2-yl)-N-(4-ethylphenyl)acetamide]
(0.86)	2.51	O=C(CN1C(=O)C2C(C1=O)C1CCC2C12CC2)Nc1ccc(Cl)nc1 (stereo not shown) [Compound 8, N-(6-chloropyridin-3-yl)-2-(1,3-dioxooctahydro-2H-spiro[2-aza-4,7-methanoisoindole-8,1′-cyclopropan]-2-yl)acetamide]
(0.9)	2.32	O=C(CN1C(=O)C2C(C1=O)C1CCC2C12CC2)Nc1ccc(F)cc1 (stereo not shown) [Compound 9, 2-(1,3-dioxooctahydro-2H-spiro[2-aza-4,7-methanoisoindole-8,1′-cyclopropan]-2-yl)-N-(4-fluorophenyl)acetamide]
(1.0)	0.267	COc1ccc(NC(=O)CN2C(=O)C3C(C2=O)C2CCC3C23CC3)cc1 (stereo not shown) [Compound 10, 2-(1,3-dioxooctahydro-2H-spiro[2-aza-4,7-methanoisoindole-8,1′-cyclopropan]-2-yl)-N-(4-methoxyphenyl)acetamide]
(0.91)	0.812	O=C(CN1C(=O)C2C(C1=O)C1C=CC2C12CC2)Nc1ccc(Br)cc1 (stereo not shown) [Compound 12, N-(4-bromophenyl)-2-(1,3-dioxo-1,3,3a,4,7,7a-hexahydro-2H-spiro[2-aza-4,7-methanoisoindole-8,1′-cyclopropan]-2-yl)acetamide]
(0.98)	0.395	O=C(CN1C(=O)C2CC=CCC2C1=O)Nc1ccc(Br)cc1 (stereo not shown) [N-(4-bromophenyl)-1,3,3a,4,7,7a-hexahydro-1,3-dioxo-2H-isoindole-2-acetamide, reference compound]
(0.90)	0.575	O=C(CN1C(=O)C2C3C=CC(C3)C2C1=O)Nc1ccc(Br)cc1 (stereo not shown) [N-(4-bromophenyl)-1,3,3a,4,7,7a-hexahydro-1,3-dioxo-4,7-methano-2H-isoindole-2-acetamide, reference compound]

Compound	FPRL1 (rel. eff.)	EC50 [µM]
CC(=O)c1ccc(NC(=O)CN2C(=O)C3C(C2=O)C2CCC3C23CC3)cc1 (stereo not shown) [Compound 7, N-(4-acetylphenyl)-2-(1,3-dioxooctahydro-2H-spiro[2-aza-4,7-methanoisoindole-8,1′-cyclopropan]-2-yl)acetamide]	(0.63)	7.83
CC(C(=O)Nc1ccc(Br)cc1)N1C(=O)C2C(C1=O)C1CCC2C12CC2 (stereo not shown) [Compound 11, N-(4-bromophenyl)-2-(1,3-dioxooctahydro-2H-spiro[2-aza-4,7-methanoisoindole-8,1′-cyclopropan]-2-yl)propanamide]	(0.93)	> 5
